Assay results: ChEMBL document CHEMBL2434896, “Carbonic anhydrase inhibitors. Synthesis of heterocyclic 4-substituted pyridine-3-sulfonamide derivatives and their inhibition of the human cytosolic isozymes I and II and transmembrane tumor-associated isozymes IX and XII” (Eur J Med Chem, 2013)
The source made the active and inactive calls. No cut-off for these calls is given here.

Columns and labels:
Malme-3M = experiment: Growth inhibition of human MALME-3M cells at 10 uM after 48 hrs by sulforhodamine B assay; type: functional; settings: read-out: GI
LOX IMVI = experiment: Growth inhibition of human LOXIMVI cells at 10 uM after 48 hrs by sulforhodamine B assay; type: functional
SNB-75 = experiment: Growth inhibition of human SNB75 cells at 10 uM after 48 hrs by sulforhodamine B assay; type: functional; settings: SNB-75, 48 h, read-out: GI
SNB-19 = experiment: Growth inhibition of human SNB19 cells at 10 uM after 48 hrs by sulforhodamine B assay; type: functional
SF-539 = experiment: Growth inhibition of human SF539 cells at 10 uM after 48 hrs by sulforhodamine B assay; type: functional; settings: SF-539, 48 h, read-out: GI
SF-295 = experiment: Growth inhibition of human SF295 cells at 10 uM after 48 hrs by sulforhodamine B assay; type: functional; settings: SF-295, 48 h, read-out: GI
SF-268 = experiment: Growth inhibition of human SF268 cells at 10 uM after 48 hrs by sulforhodamine B assay; type: functional
KM12 = experiment: Growth inhibition of human KM12 cells at 10 uM after 48 hrs by sulforhodamine B assay; type: functional
SW-620 = experiment: Growth inhibition of human SW620 cells at 10 uM after 48 hrs by sulforhodamine B assay; type: functional
HT-29 = experiment: Growth inhibition of human HT-29 cells at 10 uM after 48 hrs by sulforhodamine B assay; type: functional
HCT-15 = experiment: Growth inhibition of human HCT15 cells at 10 uM after 48 hrs by sulforhodamine B assay; type: functional
HCT-116 = experiment: Growth inhibition of human HCT116 cells at 10 uM after 48 hrs by sulforhodamine B assay; type: functional; settings: HCT-116, 48 h, read-out: GI
HCC 2998 = experiment: Growth inhibition of human HCC2998 cells at 10 uM after 48 hrs by sulforhodamine B assay; type: functional
COLO 205 = experiment: Growth inhibition of human COLO205 cells at 10 uM after 48 hrs by sulforhodamine B assay; type: functional
NCI-H522 = experiment: Growth inhibition of human NCI-H522 cells at 10 uM after 48 hrs by sulforhodamine B assay; type: functional; settings: NCI-H522, 48 h, read-out: GI
NCI-H460 = experiment: Growth inhibition of human NCI-H460 cells at 10 uM after 48 hrs by sulforhodamine B assay; type: functional
NCI-H322M = experiment: Growth inhibition of human NCI-H322M cells at 10 uM after 48 hrs by sulforhodamine B assay; type: functional
NCI-H23 = experiment: Growth inhibition of human NCI-H23 cells at 10 uM after 48 hrs by sulforhodamine B assay; type: functional
NCI-H226 = experiment: Growth inhibition of human NCI-H226 cells at 10 uM after 48 hrs by sulforhodamine B assay; type: functional
HOP-92 = experiment: Growth inhibition of human HOP92 cells at 10 uM after 48 hrs by sulforhodamine B assay; type: functional
HOP-62 = experiment: Growth inhibition of human HOP62 cells at 10 uM after 48 hrs by sulforhodamine B assay; type: functional
[1] = Growth inhibition of human EKVX cells at 10 uM after 48 hrs by sulforhodamine B assay; type: functional; settings: read-out: GI
SR = experiment: Growth inhibition of human SR cells at 10 uM after 48 hrs by sulforhodamine B assay; type: functional; settings: read-out: GI
RPMI-8226 = experiment: Growth inhibition of human RPMI8226 cells at 10 uM after 48 hrs by sulforhodamine B assay; type: functional; settings: RPMI-8226, 48 h, read-out: GI
MOLT-4 = experiment: Growth inhibition of human MOLT4 cells at 10 uM after 48 hrs by sulforhodamine B assay; type: functional; settings: MOLT-4, 48 h, read-out: GI
K562 = experiment: Growth inhibition of human K562 cells at 10 uM after 48 hrs by sulforhodamine B assay; type: functional
HL-60(TB) = experiment: Growth inhibition of human HL-60(TB) cells at 10 uM after 48 hrs by sulforhodamine B assay; type: functional; settings: HL-60, 48 h, read-out: GI
CCRF-CEM = experiment: Growth inhibition of human CCRF-CEM cells at 10 uM after 48 hrs by sulforhodamine B assay; type: functional; settings: read-out: GI
Carbonic anhydrase 9 = Carbonic anhydrase 9 (Homo sapiens, UniProt Q16790); experiment: Inhibition of human carbonic anhydrase 9 after 15 mins by stopped flow CO2 hydration assay
MDA-MB-468 = experiment: Growth inhibition of human MDA-MB-468 cells at 10 uM after 48 hrs by sulforhodamine B assay; type: functional
T47D = experiment: Growth inhibition of human T47D cells at 10 uM after 48 hrs by sulforhodamine B assay; type: functional; settings: read-out: GI
BT-549 = experiment: Growth inhibition of human BT549 cells at 10 uM after 48 hrs by sulforhodamine B assay; type: functional; settings: BT-549, 48 h, read-out: GI
Hs-578T = experiment: Growth inhibition of human Hs 578T cells at 10 uM after 48 hrs by sulforhodamine B assay; type: functional
MDA-MB-231 = experiment: Growth inhibition of human MDA-MB-231 cells at 10 uM after 48 hrs by sulforhodamine B assay; type: functional
MCF7 = experiment: Growth inhibition of human MCF7 cells at 10 uM after 48 hrs by sulforhodamine B assay; type: functional
DU-145 = experiment: Growth inhibition of human DU145 cells at 10 uM after 48 hrs by sulforhodamine B assay; type: functional
PC-3 = experiment: Growth inhibition of human PC3 cells at 10 uM after 48 hrs by sulforhodamine B assay; type: functional
UO-31 = experiment: Growth inhibition of human UO31 cells at 10 uM after 48 hrs by sulforhodamine B assay; type: functional; settings: UO-31, 48 h, read-out: GI
TK-10 = experiment: Growth inhibition of human TK10 cells at 10 uM after 48 hrs by sulforhodamine B assay; type: functional
SN12C = experiment: Growth inhibition of human SN12C cells at 10 uM after 48 hrs by sulforhodamine B assay; type: functional
RXF 393 = experiment: Growth inhibition of human RXF393 cells at 10 uM after 48 hrs by sulforhodamine B assay; type: functional
CAKI-1 = experiment: Growth inhibition of human CAKI-1 cells at 10 uM after 48 hrs by sulforhodamine B assay; type: functional; settings: CAKI-1, 48 h, read-out: GI
ACHN = experiment: Growth inhibition of human ACHN cells at 10 uM after 48 hrs by sulforhodamine B assay; type: functional
A498 = experiment: Growth inhibition of human A498 cells at 10 uM after 48 hrs by sulforhodamine B assay; type: functional
786-0 = experiment: Growth inhibition of human 786-0 cells at 10 uM after 48 hrs by sulforhodamine B assay; type: functional
SK-OV-3 = experiment: Growth inhibition of human SKOV3 cells at 10 uM after 48 hrs by sulforhodamine B assay; type: functional
NCI/ADR-RES = experiment: Growth inhibition of human NCI-ADR-RES cells at 10 uM after 48 hrs by sulforhodamine B assay; type: functional
OVCAR-5 = experiment: Growth inhibition of human OVCAR5 cells at 10 uM after 48 hrs by sulforhodamine B assay; type: functional
OVCAR-4 = experiment: Growth inhibition of human OVCAR4 cells at 10 uM after 48 hrs by sulforhodamine B assay; type: functional
OVCAR-3 = experiment: Growth inhibition of human OVCAR3 cells at 10 uM after 48 hrs by sulforhodamine B assay; type: functional
IGROV-1 = experiment: Growth inhibition of human IGROV1 cells at 10 uM after 48 hrs by sulforhodamine B assay; type: functional
UACC-62 = experiment: Growth inhibition of human UACC62 cells at 10 uM after 48 hrs by sulforhodamine B assay; type: functional
SK-MEL-5 = experiment: Growth inhibition of human SK-MEL-5 cells at 10 uM after 48 hrs by sulforhodamine B assay; type: functional
SK-MEL-28 = experiment: Growth inhibition of human SK-MEL-28 cells at 10 uM after 48 hrs by sulforhodamine B assay; type: functional, cell-based
SK-MEL-2 = experiment: Growth inhibition of human SK-MEL-2 cells at 10 uM after 48 hrs by sulforhodamine B assay; type: functional
MDA-MB-435 = experiment: Growth inhibition of human MDA-MB-435 cells at 10 uM after 48 hrs by sulforhodamine B assay; type: functional
M14 = experiment: Growth inhibition of human M14 cells at 10 uM after 48 hrs by sulforhodamine B assay; type: functional

## NS(=O)(=O)c1cnccc1N1CCN(c2ccccc2)CC1
Malme-3M
  inhibition of growth at 10 µM: 8%
LOX IMVI
  growth inhibition (GI): inactive
SNB-75
  inhibition of growth at 10 µM: 1%
SNB-19
  growth inhibition (GI): inactive
SF-539
  inhibition of growth at 10 µM: 3%
SF-295
  inhibition of growth at 10 µM: 4%
SF-268
  growth inhibition (GI): inactive
KM12
  growth inhibition (GI): inactive
SW-620
  growth inhibition (GI): inactive
HT-29
  growth inhibition (GI): inactive
HCT-15
  growth inhibition (GI): inactive
HCT-116
  inhibition of growth at 10 µM: 1%
HCC 2998
  growth inhibition (GI): inactive
COLO 205
  growth inhibition (GI): inactive
NCI-H522
  inhibition of growth at 10 µM: 1%
NCI-H460
  growth inhibition (GI): inactive
NCI-H322M
  growth inhibition (GI): inactive
NCI-H23
  growth inhibition (GI): inactive
NCI-H226
  growth inhibition (GI): inactive
HOP-92
  growth inhibition (GI): inactive
HOP-62
  growth inhibition (GI): inactive
[1]
  inhibition of growth at 10 µM: 4%
SR
  inhibition of growth at 10 µM: 8%
RPMI-8226
  inhibition of growth at 10 µM: 10%
MOLT-4
  inhibition of growth at 10 µM: 5%
K562
  growth inhibition (GI): inactive
HL-60(TB)
  inhibition of growth at 10 µM: 2%
CCRF-CEM
  inhibition of growth at 10 µM: 7%
Carbonic anhydrase 9
  Ki: 124 nM
MDA-MB-468
  growth inhibition (GI): inactive
T47D
  inhibition of growth at 10 µM: 1%
BT-549
  inhibition of growth at 10 µM: 4%
Hs-578T
  growth inhibition (GI): inactive
MDA-MB-231
  growth inhibition (GI): inactive
MCF7
  growth inhibition (GI): inactive
DU-145
  growth inhibition (GI): inactive
PC-3
  growth inhibition (GI): inactive
UO-31
  inhibition of growth at 10 µM: 14%
TK-10
  growth inhibition (GI): inactive
SN12C
  growth inhibition (GI): inactive
RXF 393
  growth inhibition (GI): inactive
CAKI-1
  inhibition of growth at 10 µM: 8%
ACHN
  growth inhibition (GI): inactive
A498
  growth inhibition (GI): inactive
786-0
  growth inhibition (GI): inactive
SK-OV-3
  growth inhibition (GI): inactive
NCI/ADR-RES
  growth inhibition (GI): inactive
OVCAR-5
  growth inhibition (GI): inactive
OVCAR-4
  growth inhibition (GI): inactive
OVCAR-3
  growth inhibition (GI): inactive
IGROV-1
  growth inhibition (GI): inactive
UACC-62
  growth inhibition (GI): inactive
SK-MEL-5
  growth inhibition (GI): inactive
SK-MEL-28
  growth inhibition (GI): inactive
SK-MEL-2
  growth inhibition (GI): inactive
MDA-MB-435
  growth inhibition (GI): inactive
M14
  growth inhibition (GI): inactive
